{"source": "ChEMBL document CHEMBL4342507", "about": "“Targeting YAP Degradation by a Novel 1,2,4-Oxadiazole Derivative via Restoration of the Function of the Hippo Pathway” (ACS Med Chem Lett, 2020)", "key": {"[1]": {"molecular_target": "Epidermal growth factor receptor (Homo sapiens) (UniProt P00533)", "sequence (P00533 whole entry)": "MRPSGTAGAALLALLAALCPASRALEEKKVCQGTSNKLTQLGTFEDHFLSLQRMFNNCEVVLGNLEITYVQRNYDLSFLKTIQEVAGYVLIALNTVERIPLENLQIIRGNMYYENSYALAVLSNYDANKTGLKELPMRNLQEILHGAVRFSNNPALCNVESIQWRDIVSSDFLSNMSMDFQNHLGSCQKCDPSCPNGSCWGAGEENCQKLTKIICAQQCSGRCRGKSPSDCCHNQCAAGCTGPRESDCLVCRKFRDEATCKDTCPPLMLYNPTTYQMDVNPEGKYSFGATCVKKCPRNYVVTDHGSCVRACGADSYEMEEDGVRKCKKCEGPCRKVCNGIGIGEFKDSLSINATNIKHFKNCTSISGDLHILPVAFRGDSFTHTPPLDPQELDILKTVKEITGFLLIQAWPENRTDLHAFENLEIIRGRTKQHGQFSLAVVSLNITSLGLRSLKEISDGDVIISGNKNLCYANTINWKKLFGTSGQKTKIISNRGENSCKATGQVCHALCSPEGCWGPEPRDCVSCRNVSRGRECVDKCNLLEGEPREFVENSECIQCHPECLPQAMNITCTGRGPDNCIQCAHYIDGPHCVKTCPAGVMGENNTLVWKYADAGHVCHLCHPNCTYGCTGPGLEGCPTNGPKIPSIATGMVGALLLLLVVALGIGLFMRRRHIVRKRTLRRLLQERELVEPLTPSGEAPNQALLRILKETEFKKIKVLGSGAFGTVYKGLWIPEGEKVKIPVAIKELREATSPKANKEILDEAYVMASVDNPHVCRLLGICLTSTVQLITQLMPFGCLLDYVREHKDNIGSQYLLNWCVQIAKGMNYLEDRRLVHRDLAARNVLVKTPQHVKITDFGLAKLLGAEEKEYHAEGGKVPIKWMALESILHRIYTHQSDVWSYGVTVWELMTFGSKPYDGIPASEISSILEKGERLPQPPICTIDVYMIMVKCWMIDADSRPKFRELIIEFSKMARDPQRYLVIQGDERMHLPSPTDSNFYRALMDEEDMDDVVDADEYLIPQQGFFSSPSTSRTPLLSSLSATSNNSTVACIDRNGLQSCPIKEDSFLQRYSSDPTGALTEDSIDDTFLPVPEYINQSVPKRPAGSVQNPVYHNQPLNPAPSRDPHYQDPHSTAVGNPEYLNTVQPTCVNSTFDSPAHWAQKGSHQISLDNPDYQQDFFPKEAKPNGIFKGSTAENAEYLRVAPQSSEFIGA", "experiment": "Induction of EGFR degradation in human MDA-MB-231 cells assessed as suppression of EGFR expression at 0.05 to 0.6 uM by Western blot analysis", "assay_type": "cell-based"}, "[2]": {"molecular_target": "Hepatocyte growth factor receptor (Homo sapiens) (UniProt P08581)", "sequence (P08581 whole entry)": "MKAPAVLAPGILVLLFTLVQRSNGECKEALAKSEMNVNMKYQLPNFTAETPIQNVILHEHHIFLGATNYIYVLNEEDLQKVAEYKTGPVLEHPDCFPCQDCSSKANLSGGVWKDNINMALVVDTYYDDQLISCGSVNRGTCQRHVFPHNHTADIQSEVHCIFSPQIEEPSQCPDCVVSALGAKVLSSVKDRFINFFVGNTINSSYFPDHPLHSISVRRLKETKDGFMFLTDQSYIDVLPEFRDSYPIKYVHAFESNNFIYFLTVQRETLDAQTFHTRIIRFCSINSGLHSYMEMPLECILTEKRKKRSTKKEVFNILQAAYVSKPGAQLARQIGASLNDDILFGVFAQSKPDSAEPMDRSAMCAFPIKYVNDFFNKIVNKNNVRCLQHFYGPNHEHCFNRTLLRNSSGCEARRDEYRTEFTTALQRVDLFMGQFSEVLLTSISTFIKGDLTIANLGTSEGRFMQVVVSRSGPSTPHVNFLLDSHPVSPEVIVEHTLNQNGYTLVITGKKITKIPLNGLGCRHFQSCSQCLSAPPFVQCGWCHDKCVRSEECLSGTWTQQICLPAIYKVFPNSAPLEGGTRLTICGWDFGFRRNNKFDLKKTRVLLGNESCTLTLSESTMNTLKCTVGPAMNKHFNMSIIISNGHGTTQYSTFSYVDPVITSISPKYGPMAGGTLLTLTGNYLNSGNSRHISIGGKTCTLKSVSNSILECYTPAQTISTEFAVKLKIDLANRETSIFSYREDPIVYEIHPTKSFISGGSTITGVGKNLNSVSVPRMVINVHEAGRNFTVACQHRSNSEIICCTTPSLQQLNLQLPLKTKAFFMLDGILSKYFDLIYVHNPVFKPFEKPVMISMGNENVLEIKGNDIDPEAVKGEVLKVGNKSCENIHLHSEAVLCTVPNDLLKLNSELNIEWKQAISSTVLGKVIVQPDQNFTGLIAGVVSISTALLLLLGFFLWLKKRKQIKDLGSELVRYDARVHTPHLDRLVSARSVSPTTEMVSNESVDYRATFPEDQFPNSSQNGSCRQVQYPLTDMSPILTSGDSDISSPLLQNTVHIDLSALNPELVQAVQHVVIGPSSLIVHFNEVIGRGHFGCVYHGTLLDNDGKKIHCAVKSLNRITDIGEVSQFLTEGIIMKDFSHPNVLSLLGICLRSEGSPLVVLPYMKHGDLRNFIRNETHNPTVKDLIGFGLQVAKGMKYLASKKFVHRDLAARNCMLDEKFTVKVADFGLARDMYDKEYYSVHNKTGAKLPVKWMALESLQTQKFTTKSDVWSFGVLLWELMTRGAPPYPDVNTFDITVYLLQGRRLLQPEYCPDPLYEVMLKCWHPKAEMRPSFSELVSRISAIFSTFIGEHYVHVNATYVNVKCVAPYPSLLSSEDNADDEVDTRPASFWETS", "experiment": "Induction of c-MET degradation in human MDA-MB-231 cells assessed as suppression of c-MET expression at 0.05 to 0.6 uM by Western blot analysis", "assay_type": "cell-based"}}, "note": "The source made the active and inactive calls. The rule behind the calls is not given here.", "data": [{"smiles": "O=C(Nc1cccc(-c2nc(-c3ccc(NC(=O)c4cccnc4)cc3Cl)no2)c1)Nc1ccc(NC(=O)C2CC2)c(C(F)(F)F)c1", "values": [{"measurement": "Activity", "setting": "[1]", "result": "Active"}, {"measurement": "Activity", "setting": "[2]", "result": "Active"}]}]}
